Data on one compound can be found in patent publication US10603289B2, “Process for the manufacture of ajoene derivatives” (DANMARKS TEKNISKE UNIVERSITET, priority 2010, dated 2020).

One data set concerns P. aeruginosa genes. The experiment in a line: DNA microarray, number of genes regulated by ajoene treatment. The format is cell-based. As to the method: (§1) DNA microarray analysis was used to identify genes regulated by ajoene treatment. As a reference we have used the QS regulon previously identified by Hentzer et al., [M. Hentzer et al., EMBO J., 2003, 22, p. […] Exponential growing P. aeruginosa cultures were treated with the following four concentrations of ajoene; 10 μg/ml (42.7 μM), 20 μg/ml (85.4 μM), 40 μg/ml (170.8 μM) and 80 μg/ml (341.6 μM). (E,Z) ajoene having an E:Z ratio of 1:4 was used. […] The samples were retrieved at an OD600 nm of 2.0 (optical density) because previous investigations have shown the highest activity among the QS genes at that cell density. Gene expression of the treated cultures was compared to an untreated control.
In general, there was only a small number of genes that were down regulated more than 5 fold by the four different concentrations of ajoene; 0 genes at 10 μg/ml ajoene, 0 genes at 20 μg/ml ajoene, 2 genes at 40 μg/ml ajoene and 11 genes at 80 μg/ml ajoene. […] According to our experimental settings, expression of 10 out of the total number of 163 QS controlled P. aeruginosa genes (according to Hentzer et al., [M. Hentzer et al., EMBO J., 2003, 22, p. 3803-3815]) was down regulated by the ajoene treatments. A concentration of 80 μg/ml ajoene affects expression of 11 out of a total of 5570 P. aeruginosa genes. Ajoene is therefore highly specific for a subclass of QS controlled genes (Table 3).

The next data set relates to PA4142. The experiment in a line: DNA microarray, gene expression in ajoene treated P. aeruginosa cultures. It is filed as cell-based. The conditions noted are these: E:Z 1:4, OD600 2.0. As to the method:
as §1

The next data set has as its system P. aeruginosa PAO1. The format is in vivo. As to the method:
Mice were sacrificed on day one or day three post-infection and the contents of bacteria in the lungs were determined. Open squares indicate bacterial lung content per lung for each individual mouse. The median values are indicated with a filled black square. The statistic significance of difference in clearance was tested by a Mann-Whitney U test (analysis of nonparametric data) and p-values for the difference at day one and day three were 0.9 and 0.002 respectively.
In this study ajoene was administered prophylactic and subsequently continued after infection. Injections were given subcutaneous in the peritoneum. We performed three individual in vivo treatment experiments with ajoene in the mouse model of pulmonary infection using the P. aeruginosa PAO1. BALB/c mice were intracheally challenged (at day 0) with alginate beads containing 1.5×10^8 CFU/ml P. aeruginosa. The two groups of mice were either untreated (placebo) or treated with ajoene 25 μg/g mouse once a day. The mice were given two days of prophylactic treatment or placebo prior to bacterial challenge. Treatment was continued for three days. […] When combining the experiments a significant difference on day three was seen (p<0.002) with a 500 fold difference in clearance between the groups (FIG. 7). This is concordant with the results obtained by Bjarnsholt et al (2005) in a similar lung infection model in with raw garlic extract was used as treatment [T. Bjarnsholt et al., Microbiology, 2005, 151, p. 3873-3880].
This highlights that a synthesis providing a sufficiently pure “crude” ajoene product is essential in order to avoid the use of HPLC purification, as this step has a detrimental effect on biological activity. […] (E,Z) ajoene having an E:Z ratio of 1:4 was used.

The test system of a further data set is Gram positive bacteria. The conditions noted are these: E:Z=1:4 isomer used; cited from earlier work.
Data set [1] has as its system biofilms of P. aeruginosa PAO1. The experiment in a line: In vitro flow cell biofilm killing, live dead stains and CSLM. The format is cell-based. The conditions noted are these: tobramycin or ajoene only. As to the method: Dead cells are stained with the DNA stain PI (Dark grey/black). The biofilm were visualized with CSLM. C) Implant model treated with ajoene and tobramycin.
3873-3880]. It was however unknown what was the active ingredient in the garlic extract. Thus. biofilms of P. aeruginosa strain were either grown in the presence or absence of 100 μg/ml ajoene. At day three the biofilms were treated with 10 μg/ml tobramycin for 24 hours. […] 10 μg/ml tobramycin was therefore chosen for the present study.

In data set [2] the test system is P. aeruginosa biofilms exposed to PMNs. Nature of the data set: Flow chamber biofilm exposed to PMNs, propidium iodide staining. It is filed as cell-based. The conditions noted are these: biofilm grown four days in the presence of 100 μg/ml ajoene; E:Z 1:4. As to the method:
A) The biofilm has grown without ajoene in the medium. B) The biofilm has grown in the presence of 100 μg/mL ajoene in the medium. Red fluorescence indicates necrotic PMN's leaking out their content of DNA (as stained by PI). Green fluorescence indicates top areas of the P. aeruginosa biofilm.
Biofilms exposed to PMN leukocytes produce rhamnolipids that function as a shield and protects the biofilm bacteria from phagocytosis. […] 20-42]. The P. aeruginosa biofilms were grown for four days either in the presence or absence of 100 μg/ml ajoene. When PMNs subsequently were introduced in the flow chambers on top of the biofilms grown in the absence of ajoene, propidium iodide (PI) staining indicated necrosis of the PMNs (FIG. 5A). […] Ajoene treatment therefore rescues the PMN leukocytes by blocking biofilm synthesis of […]. It has previously been shown that rescued PMN's can phagocytose biofilm bacteria [T. Bjarnsholt et al., Microbiology, 2005, 151, p. 3873-3880]. (E,Z) ajoene having an E:Z ratio of 1:4 was used.

In another data set the test system is rhlA. The experiment in a line: RT-PCR verification of the microarray data. The format is cell-based, P. aeruginosa. The following applies: 80 μg/ml ajoene; E:Z 1:4. The method, then:
(§2) To verify the microarray data, RT-PCR was performed with two of the key QS genes; lasB and rhlA (see FIG. 3). When comparing the two methods the repression of both the lasB and rhlA gene expression follow the same trend, with a general slightly increase in fold reduction observed with the RT-PCR based method. […] The expression of rhlA is primarily controlled by the Rhl QS system and the signal molecule BHL whereas the expression of lasB is affected by both the Las and the Rhl QS systems and the concentration of the signal molecules OdDHL and BHL. According to Rasmussen et al., [Rasmussen et al., Microbiology, 2005, 151, p. 1325-1340], the genes listed in table 3 are (except prpL which regulation is entirely governed by the Las QS system) subject to regulation by both the Las and Rhl QS systems. […] (E,Z) ajoene having an E:Z ratio of 1:4 was used in these experiments.

The next data set relates to lasB. The experiment in a line: RT-PCR verification of the microarray data. The conditions noted are these: 80 μg/ml ajoene; E:Z 1:4. It is filed as cell-based, P. aeruginosa. As to the method:
as §2

Another data set relates to Gram negative bacteria. The conditions noted are these: E:Z=1:4 isomer used; cited from earlier work.

With `C=CCSSC=CC[S+]([O-])CC=C` (centres unmarked) [ajoene, (E,Z)-4,5,9-trithiadodeca-1,6,11-triene-9-oxide], the “number of genes down regulated more than 5 fold” value is 0 genes in the data set with P. aeruginosa genes (10 μg/ml ajoene); 0 genes in the data set with P. aeruginosa genes (20 μg/ml ajoene); 2 genes with P. aeruginosa genes (40 μg/ml ajoene); 11 genes with P. aeruginosa genes (80 μg/ml ajoene, out of a total of 5570 P. aeruginosa genes). In addition, the “number of QS controlled P. aeruginosa genes down regulated by the ajoene treatments” value with P. aeruginosa genes (out of the total number of 163 QS controlled genes (Hentzer et al.)) turned out to be 10 genes. The “fold change in gene expression compared to an untreated control” value is given as −2.0 fold with PA4142 ([Ajoene] 10 μg/ml), −2.2 fold with PA4142 ([Ajoene] 20 μg/ml), −2.7 fold in the data set on PA4142 ([Ajoene] 40 μg/ml) and −5.1 fold in the data set on PA4142 ([Ajoene] 80 μg/ml). Besides, in the data set with P. aeruginosa PAO1 (day three, 25 μg/g mouse once a day subcutaneous, two days prophylactic, three experiments combined), the “difference in clearance between treated and placebo groups” value is 500 fold. In addition, the “tolerability of the administered dosage” value in the data set with P. aeruginosa PAO1 (mouse, in vivo) was “tolerated well”. In the data set with Gram positive bacteria, the “growth inhibition of Gram positive bacteria” value is recorded as “strong growth inhibitor”. For the same compound, in data set [1], the “killing of the biofilm bacteria, single agent” value was “no or only minor killing”. For the same compound, the “necrosis of PMNs on biofilm (PI staining)” value in data set [2] is on record as “no necrosis of the PMNs was observed”. Also, in the data set with rhlA, the “lowering of expression of rhlA (RT-PCR)” value is recorded as about 12 fold. For the same compound, the “lowering of expression of lasB (RT-PCR)” value in the data set on lasB was about 5 fold. Besides, in the data set with Gram negative bacteria, the “inhibitory effect on Gram negative bacteria” value is reported as “varied inhibitory effect”.
